Laboratory results published in ChEMBL document CHEMBL1201862, “PubChem BioAssay data set” (2004).
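Step 1: Grow cells in 96-well plates. Step 2: Expose to compound for 48 hours at 5 concentrations. Step 3: Interpolate endpoints linearly; if unreached, use highest concentration. The concentration for 50% growth inhibition is given as GI50.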 Active and inactive are the calls of the source. Rule as the data show it: active = GI50 up to about 1.1 µM and inactive = higher.

How the values were obtained:
Experiment in all cases: NCI tumour cell line growth inhibition, 48 h
OVCAR-5 = system: OVCAR-5
BT-549 = system: BT-549
RPMI-8226 = system: RPMI-8226
RXF 393 = system: RXF 393
ACHN = system: ACHN
A549 = system: A549
A498 = system: A498
SK-MEL-5 = system: SK-MEL-5
SF-268 = system: SF-268
HOP-92 = system: HOP-92
SW-620 = system: SW-620
T47D = system: T47D
SK-OV-3 = system: SK-OV-3
NCI-H23 = system: NCI-H23
SF-295 = system: SF-295
CAKI-1 = system: CAKI-1
PC-3 = system: PC-3
HCC 2998 = system: HCC 2998
HCT-116 = system: HCT-116
COLO 205 = system: COLO 205

Row | Structure (SMILES) | GI50 (OVCAR-5) | GI50 (BT-549) | GI50 (RPMI-8226) | GI50 (RXF 393) | GI50 (ACHN) | GI50 (A549) | GI50 (A498) | GI50 (SK-MEL-5) | GI50 (SF-268) | GI50 (HOP-92) | GI50 (SW-620) | GI50 (T47D) | GI50 (SK-OV-3) | GI50 (NCI-H23) | GI50 (SF-295) | GI50 (CAKI-1) | GI50 (PC-3) | GI50 (HCC 2998) | GI50 (HCT-116) | GI50 (COLO 205)
1 | Nc1nc(N)c2nn(-c3ccc(C(=O)O)cc3)nc2n1 | > 100 µM (inactive) | > 100 µM (inactive) | > 100 µM (inactive) | > 100 µM (inactive) | > 100 µM (inactive) | > 100 µM (inactive) | > 100 µM (inactive) | > 100 µM (inactive) | > 100 µM (inactive) | > 100 µM (inactive) | > 100 µM (inactive) | > 100 µM (inactive) | > 100 µM (inactive) | > 100 µM (inactive) | > 100 µM (inactive) | > 100 µM (inactive) | > 100 µM (inactive) | > 100 µM (inactive) | > 100 µM (inactive) | > 100 µM (inactive)
2 | Cn1c2ccccc2n2c3ccccc3c3nnc(N)c-3c12 | > 100 µM (inactive) | 2.25 µM (inactive) | > 100 µM (inactive) | 22.7 µM (inactive) | 91.2 µM (inactive) | > 100 µM (inactive) | > 100 µM (inactive) | 28.9 µM (inactive) | 0.589 µM (active) | 42.4 µM (inactive) | 57.8 µM (inactive) | 1.64 µM (inactive) | > 95.1 µM (inactive) | 17.5 µM (inactive) | 5.58 µM (inactive) | 76.4 µM (inactive) | 68.2 µM (inactive) | 41.2 µM (inactive) | 35.2 µM (inactive) | 32.4 µM (inactive)
3 | CCOc1c2ccsc2c(OCC)c2ccsc12 | 11.8 µM (inactive) | > 28.8 µM (inactive) | 4.06 µM (inactive) | 3.59 µM (inactive) | 7.1 µM (inactive) | 7.21 µM (inactive) | 7.03 µM (inactive) | 3.34 µM (inactive) | 9.82 µM (inactive) | 2.57 µM (inactive) | 3.72 µM (inactive) | 3.94 µM (inactive) | 3.92 µM (inactive) | 4.34 µM (inactive) | 2.57 µM (inactive) | 4.61 µM (inactive) | 3.94 µM (inactive) | 6.56 µM (inactive) | 4.06 µM (inactive) | 4.21 µM (inactive)
4 | CC(=O)N1NC(c2ccccc2)=NC(=O)C1c1cc(C)c(O)c(C)c1 (stereo not given) | 36.2 µM (inactive) | 23 µM (inactive) | 52.7 µM (inactive) | 17.5 µM (inactive) | 20.7 µM (inactive) | 24.4 µM (inactive) | 28.3 µM (inactive) | 20.3 µM (inactive) | 16.9 µM (inactive) | 19.8 µM (inactive) | 44.4 µM (inactive) | 22.4 µM (inactive) | 18.7 µM (inactive) | 24 µM (inactive) | 19.1 µM (inactive) | > 100 µM (inactive) | 27.8 µM (inactive) | 20 µM (inactive) | 21.2 µM (inactive) | > 100 µM (inactive)
5 | CC(NNC(=O)c1ccncc1)c1ccc(Cl)cc1Cl (stereo not given) | > 100 µM (inactive) | > 100 µM (inactive) | 77.8 µM (inactive) | > 100 µM (inactive) | > 100 µM (inactive) | > 100 µM (inactive) | > 100 µM (inactive) | 67.3 µM (inactive) | > 100 µM (inactive) | 70.6 µM (inactive) | > 100 µM (inactive) | 51.9 µM (inactive) | > 100 µM (inactive) | > 100 µM (inactive) | 72.9 µM (inactive) | > 100 µM (inactive) | 59.8 µM (inactive) | > 100 µM (inactive) | > 100 µM (inactive) | > 100 µM (inactive)
6 | COC(=O)/C=C1\C(=O)N(C(C)=O)c2ccccc21 | 22.1 µM (inactive) | 3.47 µM (inactive) | 11.9 µM (inactive) | 6.04 µM (inactive) | 6.82 µM (inactive) | 7.18 µM (inactive) | 0.0371 µM (active) | 8.73 µM (inactive) | 16.5 µM (inactive) | 2.04 µM (inactive) | 13.7 µM (inactive) | 8.39 µM (inactive) | 14.8 µM (inactive) | 14.6 µM (inactive) | 17 µM (inactive) | 0.0671 µM (active) | 13.8 µM (inactive) | 15.4 µM (inactive) | 8.28 µM (inactive) | 12.2 µM (inactive)
7 | CC(C)(O)C1CC(=O)C(C)(C2C(O)CC3(C)C4CC=C5C(CCC(O)C5(C)C)C4(C)C(=O)CC23C)O1 (stereo not given) | > 100 µM (inactive) | > 100 µM (inactive) | > 100 µM (inactive) | > 100 µM (inactive) | > 100 µM (inactive) | > 100 µM (inactive) | > 100 µM (inactive) | > 100 µM (inactive) | > 100 µM (inactive) | 91.8 µM (inactive) | > 100 µM (inactive) | > 100 µM (inactive) | > 100 µM (inactive) | > 100 µM (inactive) | > 100 µM (inactive) | > 100 µM (inactive) | > 100 µM (inactive) | > 100 µM (inactive) | > 100 µM (inactive) | > 100 µM (inactive)
8 | N=C(N)NC1C(O)C(O)C(O)C(NC(=N)N)C1O (stereo not given) | > 100 µM (inactive) | > 100 µM (inactive) | > 100 µM (inactive) | > 100 µM (inactive) | > 100 µM (inactive) | > 100 µM (inactive) | > 100 µM (inactive) | > 100 µM (inactive) | > 100 µM (inactive) | > 100 µM (inactive) | > 100 µM (inactive) | > 100 µM (inactive) | > 100 µM (inactive) | > 100 µM (inactive) | > 100 µM (inactive) | > 100 µM (inactive) | > 100 µM (inactive) | > 100 µM (inactive) | > 100 µM (inactive) | > 100 µM (inactive)
9 | S=C(NCCc1ccccn1)c1nc[nH]c1C(=S)NCCc1ccccn1 | > 100 µM (inactive) | 42.3 µM (inactive) | 26 µM (inactive) | 23 µM (inactive) | 36.3 µM (inactive) | 32.3 µM (inactive) | > 100 µM (inactive) | 31.7 µM (inactive) | 66.1 µM (inactive) | 53.6 µM (inactive) | 32.5 µM (inactive) | 23.5 µM (inactive) | > 100 µM (inactive) | 39.4 µM (inactive) | 25.1 µM (inactive) | 57.1 µM (inactive) | 39.2 µM (inactive) | 76.9 µM (inactive) | 34 µM (inactive) | 49.7 µM (inactive)
10 | CN(C)c1nc2n(CCO)c(-c3ccccc3)c(-c3ccccc3)nc-2c(=O)n1 | > 100 µM (inactive) | > 100 µM (inactive) | > 100 µM (inactive) | > 100 µM (inactive) | > 100 µM (inactive) | > 100 µM (inactive) | > 100 µM (inactive) | > 100 µM (inactive) | > 100 µM (inactive) | > 100 µM (inactive) | > 100 µM (inactive) | > 100 µM (inactive) | > 100 µM (inactive) | > 100 µM (inactive) | > 100 µM (inactive) | > 100 µM (inactive) | > 100 µM (inactive) | > 100 µM (inactive) | > 100 µM (inactive) | > 100 µM (inactive)
11 | CC(=O)OCC1OC(Oc2cc(C)c(O)cc2C/C=C(\C)CC/C=C(\C)CC(=O)CC(C)C)C(O)C(OC(C)=O)C1OC(C)=O (stereo not given) | 1.83 µM (inactive) | 10.6 µM (inactive) | 9.16 µM (inactive) | 9.77 µM (inactive) | 14.2 µM (inactive) | 7.8 µM (inactive) | 11 µM (inactive) | 8.13 µM (inactive) | 21.2 µM (inactive) | 45.8 µM (inactive) | 11 µM (inactive) | 9.42 µM (inactive) | 26.2 µM (inactive) | 6.95 µM (inactive) | 15.1 µM (inactive) | 30.3 µM (inactive) | 14.2 µM (inactive) | 10.7 µM (inactive) | 18.2 µM (inactive) | 10.2 µM (inactive)
12 | CC(C)(C)OC(=O)NCC(CNC(=O)OC(C)(C)C)C(N)=O | > 100 µM (inactive) | > 100 µM (inactive) | > 100 µM (inactive) | > 100 µM (inactive) | > 100 µM (inactive) | > 100 µM (inactive) | > 100 µM (inactive) | > 100 µM (inactive) | > 100 µM (inactive) | > 100 µM (inactive) | > 100 µM (inactive) | > 100 µM (inactive) | > 100 µM (inactive) | > 100 µM (inactive) | > 100 µM (inactive) | > 100 µM (inactive) | > 100 µM (inactive) | > 100 µM (inactive) | > 100 µM (inactive) | > 100 µM (inactive)
13 | CCCCCCCCCCCCOP(=O)(O)OP(=O)(O)OCC1OC(n2cc(C)c(=O)[nH]c2=O)CC1O (stereo not given) | > 100 µM (inactive) | > 100 µM (inactive) | > 100 µM (inactive) | > 100 µM (inactive) | > 100 µM (inactive) | > 100 µM (inactive) | > 100 µM (inactive) | > 100 µM (inactive) | > 100 µM (inactive) | > 100 µM (inactive) | > 100 µM (inactive) | > 100 µM (inactive) | > 100 µM (inactive) | > 100 µM (inactive) | > 100 µM (inactive) | > 100 µM (inactive) | > 100 µM (inactive) | > 100 µM (inactive) | > 100 µM (inactive) | > 100 µM (inactive)
14 | FC(F)(F)C1(C(F)(F)F)O[Si]2(OC(C(F)(F)F)(C(F)(F)F)c3ccccc32)c2ccccc21 | 14.5 µM (inactive) | 14.5 µM (inactive) | 17.2 µM (inactive) | 13.6 µM (inactive) | 12 µM (inactive) | 13.5 µM (inactive) | 13.7 µM (inactive) | 15.5 µM (inactive) | 15.6 µM (inactive) | 3.69 µM (inactive) | 17.1 µM (inactive) | 9.95 µM (inactive) | 15.8 µM (inactive) | 10.6 µM (inactive) | 5.2 µM (inactive) | 19.1 µM (inactive) | 6.27 µM (inactive) | 13.7 µM (inactive) | 5.45 µM (inactive) | 14.8 µM (inactive)
